# Reference: patent US8435980B2 (AbbVie Inc., priority 2009, dated 2013)
# Molecular target: T1, Cdc7 (BEV coexpressed huCDC7/DBF4) (Homo sapiens, UniProt O00311)
# T1 construct: made in house; host or cells: BEV (baculovirus expression vector) co-expression; insect cells are implied but no cell line is named
# Assay: Cdc7 enzyme inhibition assay ([33P]ATP, biotinylated peptide substrate, FlashPlate)
# Format: biochemical
# Details: Table 3; enzyme inhibition data (Ki)
# Method: Cdc7 (BEV coexpressed huCDC7/DBF4) is prepared internally. Cdc7 assays are conducted as follows with final concentrations as listed. […] Reactions are quenched after 1 hr by the addition of 90 μL stop buffer (50 mM EDTA, 2M NaCl). […] (Ki) for exemplary compounds.
# T1 sequence (O00311 whole entry): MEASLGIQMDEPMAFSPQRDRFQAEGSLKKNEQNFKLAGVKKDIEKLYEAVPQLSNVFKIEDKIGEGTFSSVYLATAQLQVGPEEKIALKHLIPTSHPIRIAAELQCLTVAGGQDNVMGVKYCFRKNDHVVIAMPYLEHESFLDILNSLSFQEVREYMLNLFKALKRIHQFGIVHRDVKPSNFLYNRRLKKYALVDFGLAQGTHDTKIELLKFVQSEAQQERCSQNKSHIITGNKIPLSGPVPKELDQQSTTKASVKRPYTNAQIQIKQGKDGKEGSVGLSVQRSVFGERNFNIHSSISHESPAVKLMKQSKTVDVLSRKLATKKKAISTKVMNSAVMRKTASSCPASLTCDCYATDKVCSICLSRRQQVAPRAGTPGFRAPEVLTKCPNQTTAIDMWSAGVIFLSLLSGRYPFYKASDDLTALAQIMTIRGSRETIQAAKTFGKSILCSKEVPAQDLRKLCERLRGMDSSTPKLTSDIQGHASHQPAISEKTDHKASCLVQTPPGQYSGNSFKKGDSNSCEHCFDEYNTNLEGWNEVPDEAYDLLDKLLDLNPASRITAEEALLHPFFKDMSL
# T1 sequence (Q9UBU7 whole entry partner): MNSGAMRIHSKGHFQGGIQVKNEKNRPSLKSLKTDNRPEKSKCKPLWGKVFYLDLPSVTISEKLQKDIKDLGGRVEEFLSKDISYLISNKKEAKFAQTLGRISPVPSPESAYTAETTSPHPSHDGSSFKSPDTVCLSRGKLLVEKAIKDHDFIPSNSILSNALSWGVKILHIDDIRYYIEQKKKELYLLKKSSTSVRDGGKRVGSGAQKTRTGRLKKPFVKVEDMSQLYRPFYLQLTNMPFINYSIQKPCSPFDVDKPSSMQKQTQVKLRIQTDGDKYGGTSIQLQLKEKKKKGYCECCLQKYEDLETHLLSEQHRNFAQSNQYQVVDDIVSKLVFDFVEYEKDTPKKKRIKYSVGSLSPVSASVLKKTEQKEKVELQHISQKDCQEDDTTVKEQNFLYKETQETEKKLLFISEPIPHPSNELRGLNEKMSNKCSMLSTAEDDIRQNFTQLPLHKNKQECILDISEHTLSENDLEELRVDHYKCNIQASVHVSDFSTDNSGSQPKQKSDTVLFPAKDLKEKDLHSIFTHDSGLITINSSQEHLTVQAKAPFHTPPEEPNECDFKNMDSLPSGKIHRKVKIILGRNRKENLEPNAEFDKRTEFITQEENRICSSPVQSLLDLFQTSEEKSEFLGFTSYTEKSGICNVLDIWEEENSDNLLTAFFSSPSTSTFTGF
row,Compound,Ki
1,"Clc1cc(-c2c[nH]c3ncccc23)cc(NC2CCN(Cc3ccccc3)C2)n1 (stereo not shown) [Example 392, N-(1-benzylpyrrolidin-3-yl)-6-chloro-4-(1H-pyrrolo[2,3-b]pyridin-3-yl)pyridin-2-amine]",< 10 nM
2,"O=C(NCCS(=O)(=O)N[C@H]1CC[C@H](Nc2cc(-c3c[nH]c4ncccc34)cc(Cl)n2)CC1)c1ccc(F)cc1F [Example 393, N-{2-[(trans-4-{[6-chloro-4-(1H-pyrrolo[2,3-b]pyridin-3-yl)pyridin-2-yl]amino}cyclohexyl)sulfamoyl]ethyl}-2,4-difluorobenzamide]",< 10 nM
3,"O=C(N[C@H]1CC[C@H](Nc2cc(-c3c[nH]c4ncccc34)cc(Cl)n2)CC1)C1CN(Cc2cccc(C(F)(F)F)c2)C1 [Example 394, N-(trans-4-{[6-chloro-4-(1H-pyrrolo[2,3-b]pyridin-3-yl)pyridin-2-yl]amino}cyclohexyl)-1-[3-(trifluoromethyl)benzyl]azetidine-3-carboxamide]",< 10 nM
4,"O=C(N[C@H]1CC[C@H](Nc2cc(-c3c[nH]c4ncccc34)cc(Cl)n2)CC1)C1CN(Cc2ccc(Cl)cc2Cl)C1 [Example 395, N-(trans-4-{[6-chloro-4-(1H-pyrrolo[2,3-b]pyridin-3-yl)pyridin-2-yl]amino}cyclohexyl)-1-(2,4-dichlorobenzyl)azetidine-3-carboxamide]",< 10 nM
5,"Clc1cc(-c2c[nH]c3ncccc23)cc(NC2CCN(Cc3ccccc3)CC2)n1 [Example 402, N-(1-benzylpiperidin-4-yl)-6-chloro-4-(1H-pyrrolo[2,3-b]pyridin-3-yl)pyridin-2-amine]",< 10 nM
6,"Clc1cc(-c2c[nH]c3ncccc23)cc(NC2Cc3ccccc3C2)n1 [Example 404, 6-chloro-N-(2,3-dihydro-1H-inden-2-yl)-4-(1H-pyrrolo[2,3-b]pyridin-3-yl)pyridin-2-amine]",< 10 nM
7,"Cc1cccc(CN2CC(C(=O)N[C@H]3CC[C@H](Nc4cc(-c5c[nH]c6ncccc56)cc(Cl)n4)CC3)C2)c1C [Example 406, N-(trans-4-{[6-chloro-4-(1H-pyrrolo[2,3-b]pyridin-3-yl)pyridin-2-yl]amino}cyclohexyl)-1-(2,3-dimethylbenzyl)azetidine-3-carboxamide]",< 10 nM
8,"O=C(N[C@H]1CC[C@H](Nc2cc(-c3c[nH]c4ncccc34)cc(Cl)n2)CC1)C1CN(Cc2ccc3cc[nH]c3c2)C1 [Example 407, N-(trans-4-{[6-chloro-4-(1H-pyrrolo[2,3-b]pyridin-3-yl)pyridin-2-yl]amino}cyclohexyl)-1-(1H-indol-6-ylmethyl)azetidine-3-carboxamide]",< 10 nM
9,"Clc1cc(-c2c[nH]c3ncccc23)cc(Nc2ccc(OCc3ccccc3)cc2)n1 [Example 408, N-[4-(benzyloxy)phenyl]-6-chloro-4-(1H-pyrrolo[2,3-b]pyridin-3-yl)pyridin-2-amine]",< 10 nM
10,"COc1ccc(Nc2cc(-c3c[nH]c4ncccc34)cc(Cl)n2)cc1 [Example 411, 6-chloro-N-(4-methoxyphenyl)-4-(1H-pyrrolo[2,3-b]pyridin-3-yl)pyridin-2-amine]",< 10 nM
11,"COc1cc(Nc2cc(-c3c[nH]c4ncccc34)cc(Cl)n2)cc(OC)c1OC [Example 412, 6-chloro-4-(1H-pyrrolo[2,3-b]pyridin-3-yl)-N-(3,4,5-trimethoxyphenyl)pyridin-2-amine]",< 10 nM
12,"Clc1cc(-c2c[nH]c3ncccc23)cc(Nc2ccc(-n3ccnc3)cc2)n1 [Example 413, 6-chloro-N-[4-(1H-imidazol-1-yl)phenyl]-4-(1H-pyrrolo[2,3-b]pyridin-3-yl)pyridin-2-amine]",< 10 nM
13,COc1ccc(CNc2cc(-c3c[nH]c4ncccc34)cc(Cl)n2)cc1OC [Example 414],< 10 nM
14,"CSc1ccc(Nc2cc(-c3c[nH]c4ncccc34)cc(Cl)n2)cc1 [Example 418, 6-chloro-N-[4-(methylsulfanyl)phenyl]-4-(1H-pyrrolo[2,3-b]pyridin-3-yl)pyridin-2-amine]",< 10 nM

# Results, then the molecule that gave them:
row,Ki,Compound
1,< 10 nM,"Clc1cc(-c2c[nH]c3ncccc23)cc(NCCOc2ccccc2)n1 [Example 390, 6-chloro-N-(2-phenoxyethyl)-4-(1H-pyrrolo[2,3-b]pyridin-3-yl)pyridin-2-amine]"
2,< 10 nM,"CN(C)CCCNc1cc(-c2c[nH]c3ncccc23)cc(Cl)n1 [Example 391, N′-[6-chloro-4-(1H-pyrrolo[2,3-b]pyridin-3-yl)pyridin-2-yl]-N,N-dimethylpropane-1,3-diamine]"
3,< 10 nM,"COc1ccc(CNc2cc(-c3c[nH]c4ncccc34)cc(Cl)n2)cc1 [Example 397, 6-chloro-N-(4-methoxybenzyl)-4-(1H-pyrrolo[2,3-b]pyridin-3-yl)pyridin-2-amine]"
4,< 10 nM,"Oc1ccc(CCNc2cc(-c3c[nH]c4ncccc34)cc(Cl)n2)cc1 [Example 398, 4-(2-{[6-chloro-4-(1H-pyrrolo[2,3-b]pyridin-3-yl)pyridin-2-yl]amino}ethyl)phenol]"
5,< 10 nM,"Clc1cc(-c2c[nH]c3ncccc23)cc(NCCc2ccc3c(c2)OCO3)n1 [Example 399, N-[2-(1,3-benzodioxol-5-yl)ethyl]-6-chloro-4-(1H-pyrrolo[2,3-b]pyridin-3-yl)pyridin-2-amine]"
6,< 10 nM,"Clc1cc(-c2c[nH]c3ncccc23)cc(NCc2ccc3c(c2)OCO3)n1 [Example 400, N-(1,3-benzodioxol-5-ylmethyl)-6-chloro-4-(1H-pyrrolo[2,3-b]pyridin-3-yl)pyridin-2-amine]"
7,< 10 nM,"COc1ccc(CCNc2cc(-c3c[nH]c4ncccc34)cc(Cl)n2)cc1 [Example 401, 6-chloro-N-[2-(4-methoxyphenyl)ethyl]-4-(1H-pyrrolo[2,3-b]pyridin-3-yl)pyridin-2-amine]"
8,< 10 nM,"Clc1cc(-c2c[nH]c3ncccc23)cc(NCCc2ccncc2)n1 [Example 403, 6-chloro-N-[2-(pyridin-4-yl)ethyl]-4-(1H-pyrrolo[2,3-b]pyridin-3-yl)pyridin-2-amine]"
9,< 10 nM,"Clc1cc(-c2c[nH]c3ncccc23)cc(NCCc2c[nH]c3ccccc23)n1 [Example 405, 6-chloro-N-[2-(1H-indol-3-yl)ethyl]-4-(1H-pyrrolo[2,3-b]pyridin-3-yl)pyridin-2-amine]"
10,< 10 nM,"Clc1cc(-c2c[nH]c3ncccc23)cc(NCc2nc3ccccc3[nH]2)n1 [Example 409, N-(1H-benzimidazol-2-ylmethyl)-6-chloro-4-(1H-pyrrolo[2,3-b]pyridin-3-yl)pyridin-2-amine]"
11,< 10 nM,"Clc1cc(-c2c[nH]c3ncccc23)cc(NCc2ccc3[nH]ccc3c2)n1 [Example 410, 6-chloro-N-(1H-indol-5-ylmethyl)-4-(1H-pyrrolo[2,3-b]pyridin-3-yl)pyridin-2-amine]"
12,< 10 nM,"OC(CNc1cc(-c2c[nH]c3ncccc23)cc(Cl)n1)c1ccccc1 (stereo not shown) [Example 415, 2-{[6-chloro-4-(1H-pyrrolo[2,3-b]pyridin-3-yl)pyridin-2-yl]amino}-1-phenylethanol]"
13,< 10 nM,"Clc1cc(-c2c[nH]c3ncccc23)cc(NCCCc2ccccc2)n1 [Example 416, 6-chloro-N-(3-phenylpropyl)-4-(1H-pyrrolo[2,3-b]pyridin-3-yl)pyridin-2-amine]"
14,< 10 nM,"CS(=O)(=O)c1ccc(CNc2cc(-c3c[nH]c4ncccc34)cc(Cl)n2)cc1 [Example 417, 6-chloro-N-[4-(methylsulfonyl)benzyl]-4-(1H-pyrrolo[2,3-b]pyridin-3-yl)pyridin-2-amine]"
